Where two headings read alike, the source gives them in different places.
Assays:
[1] = tested on: HIV-1 (HTLVIIIB or HTLVIIIMN strains) in H9 cells; assay: HIV p24 antigen capture assay, acute infection of H9 cells; format: cell-based; conditions: Human immunodeficiency virus 1, H9, Expt. 1
From the text: After infection, unabsorbed virions are removed by washing.

[2] = tested on: HIV-1 reverse transcriptase (RT) activity in chronically infected CEM cells; conditions: chronically infected human T lymphocytes such as CEM; general statement without data; cited from earlier work
[3] = tested on: HIV-1 (HTLVIIIB) in H9 cells; assay: Long term infection assay, p24 expression in H9 cells (antigen capture); format: cell-based; conditions: for inhibition at 0.05 µM: read-out: % inhibition of p24 compared with control

## Cc1cn([C@H]2C[C@H](N=[N+]=[N-])[C@@H](CO)O2)c(=O)[nH]c1=O [AZT, 3'-azido-3'-deoxythymidine]
[1]; AZT 0.0016 μg/ml (0.005 μM)
  inhibition at 0.005 µM: 6%
[1]; AZT 0.008 μg/ml (0.02 μM)
  inhibition at 0.02 µM: 44%
[1]; AZT 0.04 μg/ml (0.1 μM)
  inhibition at 0.1 µM: 73%
[1]; AZT 0.2 μg/ml (0.6 μM)
  inhibition at 0.6 µM: 90%
[2]
  inhibition of HIV replication in chronically infected cells (in words): do not inhibit HIV replication

## Nc1ccn([C@H]2CC[C@@H](CO)O2)c(=O)n1 [ddC, dideoxycytosine]
[3]; Human immunodeficiency virus 1, H9, 72 h, day 3, 25mer 0.60 μM, ddC 0.05 μM
  inhibition at 0.05 µM: 75%
[3]; Human immunodeficiency virus 1, H9, 168 h, day 7, 25mer 0.60 μM, ddC 0.05 μM
  inhibition at 0.05 µM: 94%
[3]; Human immunodeficiency virus 1, H9, 240 h, day 10, 25mer 0.60 μM, ddC 0.05 μM
  inhibition at 0.05 µM: 91%
[3]; Human immunodeficiency virus 1, H9, 336 h, day 14, 25mer 0.60 μM, ddC 0.05 μM
  inhibition at 0.05 µM: 56%
[3]; Human immunodeficiency virus 1, H9, 408 h, day 17, 25mer 0.60 μM, ddC 0.05 μM
  inhibition at 0.05 µM: 44%
[3]; day 3, 25mer 0.60 μM, ddC 0.05 μM, control 489
  p24 expression: 124 pg/mL
[3]; day 7, 25mer 0.60 μM, ddC 0.05 μM, control 188,800
  p24 expression (pg/ml): 10,800 pg/ml
[3]; day 10, 25mer 0.60 μM, ddC 0.05 μM, control 210,400
  p24 expression (pg/ml): 17,300 pg/ml
[3]; day 14, 25mer 0.60 μM, ddC 0.05 μM, control 130,400
  p24 expression (pg/ml): 60,000 pg/ml
[3]; day 17, 25mer 0.60 μM, ddC 0.05 μM, control 95,600
  p24 expression (pg/ml): 54,000 pg/ml
[3]; long term culture, up to day 17
  long term inhibition of p24 expression (in words): ineffectiveness of ddC
[2]
  inhibition of HIV replication in chronically infected cells (in words): do not inhibit HIV replication

From patent publication US5684147A, “Therapeutic anti-HIV anti-viral oligonucleotides and pharmaceutical formulations thereof” (Hybridon, Inc., priority 1994, dated 1997)
